Laboratory results published in article PMC4050309, “Five New Guanacastane-Type Diterpenes from Cultures of the Fungus Psathyrella candolleana” (Natural Products and Bioprospecting, 2014).

Experiments:
[1] = molecular target: T1, mouse 11β-HSD1 (11β-hydroxysteroid dehydrogenase) (Mus musculus, UniProt P50172); assay: scintillation proximity assay, [3H]cortisone to [3H]cortisol, microsomes overexpressing […]β-HSD1; assay type: biochemical
T1 construct: gene Hsd11b1; full-length cDNA, microsomal fraction of stably transfected HEK-293 cells
T1 sequence (P50172 whole entry): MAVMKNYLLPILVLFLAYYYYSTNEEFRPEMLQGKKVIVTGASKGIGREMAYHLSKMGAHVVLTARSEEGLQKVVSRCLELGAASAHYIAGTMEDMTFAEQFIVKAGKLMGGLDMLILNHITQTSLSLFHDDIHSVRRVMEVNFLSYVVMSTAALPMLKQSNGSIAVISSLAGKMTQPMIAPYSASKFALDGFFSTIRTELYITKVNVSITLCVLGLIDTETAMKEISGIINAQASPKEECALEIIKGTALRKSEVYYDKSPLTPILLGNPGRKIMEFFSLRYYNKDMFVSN

[2] = molecular target: T2, human 11β-HSD1 (11β-hydroxysteroid dehydrogenase) (Homo sapiens, UniProt P28845); assay: as above; assay type: biochemical
T2 construct: gene HSD11B1; full-length cDNA, microsomal fraction of stably transfected HEK-293 cells
T2 sequence (P28845 whole entry): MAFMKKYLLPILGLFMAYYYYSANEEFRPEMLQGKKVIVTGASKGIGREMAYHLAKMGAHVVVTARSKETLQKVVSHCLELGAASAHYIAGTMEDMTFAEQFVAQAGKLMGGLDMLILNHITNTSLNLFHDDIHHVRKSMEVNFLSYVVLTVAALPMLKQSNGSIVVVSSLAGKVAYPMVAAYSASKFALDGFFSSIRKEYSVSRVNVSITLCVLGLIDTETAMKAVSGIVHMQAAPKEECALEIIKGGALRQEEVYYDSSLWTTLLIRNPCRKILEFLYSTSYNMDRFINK

| IC50 [1] [µM] | IC50 [2] [µM] | SMILES |
| --- | --- | --- |
| 13.9 | 6.2 | CC(C)C1=C(O)C(=O)C2=CC3=C(CO)C(=O)CC[C@@]3(C)CC[C@@]21C [compound 3, Guanacastepene R] |
| 0.0065 | 0.0042 | CC1(C)[C@@H](O[C@H]2O[C@H](C(=O)O)[C@@H](O)[C@H](O)[C@H]2O[C@@H]2O[C@H](C(=O)O)[C@@H](O)[C@H](O)[C@H]2O)CC[C@]2(C)[C@H]3C(=O)C=C4[C@@H]5C[C@@](C)(C(=O)O)CC[C@]5(C)CC[C@@]4(C)[C@]3(C)CC[C@@H]12 [glycyrrhizinic acid] |
